Measured values reported in patent US5321023A, “Pyridoindolobenzodiazepines and derivatives as antipsychotics” (The Du Pont Merck Pharmaceutical Co., priority 1992, dated 1994).

Test system: rat
Assay: Conditioned Avoidance Responding in Rat
Type: in vivo, rat (male CDF)
Conditions: inhibition of conditioned avoidance responding, oral, tested 30-360 minutes after administration, % of vehicle control, read-out: Peak ED50
Description: Conditioned Avoidance Responding in Rat
The procedure utilized is a modification of the procedure of Cook and Weidley (Ann. NY Acad Sci.66: 740-752, 1957).
Apparatus: A Coulbourn Instruments large modular test cage (25×30×30 cm) with a pole suspended from the center of the ceiling and a stainless steel grid floor. A 0.75 mA pulsed current (250 msec on, 750 msec off) is delivered to the grid floor by a Coulbourn Instruments programmable shocker.
Animals: Male CDF rats are purchased from Charles River Breeding Laboratories (Wilmington, Mass.).
Test Procedure: Each trial lasts 25 seconds. Ten seconds after the rat is placed in the testing apparatus, footshock is delivered for 15 seconds. The rat is immediately removed from the testing apparatus. If the rat climbs the pole within the first 10 seconds, footshock is avoided and an avoidance response is recorded. If the rat climbs the pole during the footshock period, an escape response is recorded. If the animal fails to climb the pole during the 25 second trial period, an escape failure is recorded.
Drug testing is initiated after rats are well trained to consistently avoid footshock. Rats are tested for conditioned avoidance responding at various time intervals (30-360 minutes) after oral administration of test compound.
For each dose of test compound, inhibition of conditioned avoidance responding is expressed as a percentage of the corresponding Drug Vehicle (control) value. The percent antagonism is used to calculate ED50 values when appropriate.

| Structure (SMILES) | ED50 |
| --- | --- |
| Cc1cc2c3c(c1)c1c(n3-c3ccc(Cl)cc3NC2=O)CCN(C)C1 [Example 1, 11-chloro-1,2,3,4,8,9-hexahydro-3,6-dimethylpyrido[4',3':2,3]indolo[1,7-ab][1,5]benzodiazepin-8(9H)-one] | ≤ 20 mg/kg |
| Cc1cc2c3c(c1)c1c(n3-c3ccc(C(F)(F)F)cc3NC2=O)CCN(C)C1 [Example 3] | 20 to 50 mg/kg |
| Cc1cc2c3c(c1)c1c(n3-c3ccc(Cl)cc3NC2)CCN(C)C1 [Example 23, 11-chloro-1,2,3,4,8,9-hexahydro-3,6-dimethylpyrido[4',3':2,3]indolo[1,7-ab][1,5]benzodiazepine] | ≤ 20 mg/kg |
| Cc1cc2c3c(c1)c1c(n3-c3ccc(C(F)(F)F)cc3NC2)CCN(C)C1 [Example 25] | ≤ 20 mg/kg |
